Reference: patent US6492365B1, “Microsomal triglyceride transfer protein” (Bristol-Myers Squibb Company, priority 1992, dated 2002)
Structures can show the parent of a compound that is named as a salt.

Target: T1, bovine MTP (Bos taurus, UniProt P55156)
T1 construct: with about 50-200 ng purified MTP in the well of a 96-well plate; from tissue; host or cells: bovine liver
T1 sequence (P55156 12-887): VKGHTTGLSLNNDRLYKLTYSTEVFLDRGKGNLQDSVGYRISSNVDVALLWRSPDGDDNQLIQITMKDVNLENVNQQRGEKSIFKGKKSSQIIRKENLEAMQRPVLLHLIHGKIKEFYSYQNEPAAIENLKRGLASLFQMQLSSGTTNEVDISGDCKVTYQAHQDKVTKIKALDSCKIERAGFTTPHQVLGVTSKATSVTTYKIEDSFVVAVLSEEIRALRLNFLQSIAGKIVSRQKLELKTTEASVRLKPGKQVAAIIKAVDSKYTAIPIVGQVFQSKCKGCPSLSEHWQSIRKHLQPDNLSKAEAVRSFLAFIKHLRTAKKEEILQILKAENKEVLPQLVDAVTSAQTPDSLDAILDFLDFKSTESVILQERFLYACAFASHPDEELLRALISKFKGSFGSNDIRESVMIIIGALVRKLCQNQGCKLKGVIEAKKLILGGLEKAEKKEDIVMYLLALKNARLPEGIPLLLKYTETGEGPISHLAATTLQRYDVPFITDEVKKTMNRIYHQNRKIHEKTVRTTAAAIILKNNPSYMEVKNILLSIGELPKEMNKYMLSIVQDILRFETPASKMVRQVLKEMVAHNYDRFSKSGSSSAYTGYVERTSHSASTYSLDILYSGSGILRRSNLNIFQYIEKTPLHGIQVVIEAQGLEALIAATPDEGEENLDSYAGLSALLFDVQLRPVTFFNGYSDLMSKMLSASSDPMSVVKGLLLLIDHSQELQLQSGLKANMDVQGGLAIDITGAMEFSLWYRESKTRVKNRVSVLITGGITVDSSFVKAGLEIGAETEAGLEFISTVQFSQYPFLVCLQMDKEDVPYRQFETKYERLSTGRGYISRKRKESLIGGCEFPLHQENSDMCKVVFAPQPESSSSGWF
T1 sequence (P05307 21-510 partner): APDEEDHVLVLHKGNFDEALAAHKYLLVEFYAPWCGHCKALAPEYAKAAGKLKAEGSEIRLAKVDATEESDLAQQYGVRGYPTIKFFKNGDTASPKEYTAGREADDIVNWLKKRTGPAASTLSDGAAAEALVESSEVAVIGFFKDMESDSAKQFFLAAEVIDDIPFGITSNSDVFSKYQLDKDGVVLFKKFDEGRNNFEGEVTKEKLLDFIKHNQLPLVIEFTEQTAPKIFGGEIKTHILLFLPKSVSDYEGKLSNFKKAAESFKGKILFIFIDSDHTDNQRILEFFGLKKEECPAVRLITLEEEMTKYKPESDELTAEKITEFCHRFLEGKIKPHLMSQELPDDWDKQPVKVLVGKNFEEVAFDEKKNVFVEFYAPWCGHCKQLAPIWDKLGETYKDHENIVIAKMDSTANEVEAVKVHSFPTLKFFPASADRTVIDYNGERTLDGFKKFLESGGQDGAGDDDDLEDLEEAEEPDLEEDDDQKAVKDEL
Assay: MTP-catalyzed transport of 14C-CE from donor SUV to acceptor SUV
Type: biochemical
Protocol: To measure the effect of compound A on bovine MTP-catalyzed transport of CE or PC between membranes, the lipid transfer assay which measures TG transfer between SUV was modified. The composition of the donor vesicles was the same, except 0.25 mol% ^14C-CE or ^14C-PC replaced the labeled TG. The composition of the acceptor vesicles were the same, except labeled PC and unlabeled TG were not included. Following precipitation of donor vesicles, the percentage of lipid transfer was calculated by comparing the ^14C-CE or -PC in the acceptor vesicles in the supernatant following a transfer reaction to the total ^14C-CE or -PC in the assay. The labeled lipid in the supernatant in the absence of MTP was subtracted from the labeled lipid in the presence MTP to calculate the MTP-catalyzed lipid transfer from donor SUV to acceptor SUV. The remainder of the assay was essentially as described previously.

## O=C1c2ccccc2CN1C1CCN(CCC(c2ccccc2)c2ccccc2)CC1 [compound A, 2-[1-(3,3-diphenylpropyl)-4-piperdinyl]-2,3-dihydro-3-oxo-1H-isoindole hydrochloride]
At concentrations that inhibited approximately 40% of PC transfer
  decrease of CE transfer: more than 80%
Result in words
  inhibition of CE transfer: comparable to its inhibition of TG transfer
